# Read-outs that look alike come from different tables or passages of the source.
# Key:
# male Sprague-Dawley rats [1] = conditions: nasal, 2%, 20 uL/nare; vehicle cyclodextrin; urethane-anesthetized rats; FIG. 2
# Description: Mean arterial blood pressure was measured using a Digi-Med Blood Pressure Analyzer. The rats were anesthetized with urethane (2 g/kg, IP) and the left carotid artery was cannulated. A baseline blood pressure was recorded then the drug (or vehicle) was administered and blood pressure recorded for 45-60 minutes.
# male Sprague-Dawley rats [2] = test system: male Sprague-Dawley rats
Structure (SMILES),effect on mean arterial blood pressure compared to vehicle treated group (male Sprague-Dawley rats [1]),"total distance traveled, compared to no treatment group (male Sprague-Dawley rats [2]; rat, in vivo)","total distance traveled, drug treated groups compared to vehicle treated group (male Sprague-Dawley rats [2]; rat, in vivo)","total distance traveled, drug treated groups compared to vehicle treated group (male Sprague-Dawley rats [2]; nasal, 2%, 20 uL/nare, vehicle distilled water, an hour after administration, FIG. 5)"
C(=C\c1ccccc1)/CN1CCN(C(c2ccccc2)c2ccccc2)CC1 [cinnarizine],Only the nifedipine group at 45 minutes was statistically significantly different,statistically significant difference,no significant difference,–
COc1ccc([C@@H]2Sc3ccccc3N(CCN(C)C)C(=O)[C@@H]2OC(C)=O)cc1 [diltiazem],–,–,no significant difference,–
COc1ccc(CCN(C)CCCC(C#N)(c2ccc(OC)c(OC)c2)C(C)C)cc1OC (centres unmarked) [verapamil],–,–,–,no significant difference

# Source: patent US20050191245A1, “Nasal administration of calcium channel, blockers for treatment of hypertension and other cardiovascular disorders” (priority 2004, published 2005)
